For 8 compounds, inhibition in vivo results are on record in patent US7534892B2, “Sulfonamide compound” (Shionogi & Co., Ltd., priority 2004, dated 2009).

The test system of this assay is food intake of rats. Description: Antifeeding activity: food intake after intracerebroventricular infusion of NPYY5 agonist. Particulars: Rattus norvegicus, compound 30 mg/kg oral, 0.1 nmol NPYY5 agonist infused one hour later. Format: in vivo. On the procedure: A guide cannula was implanted in ventriculus lateralis of 7-week-old rats (200-300 g) reared in free-feeding. Then the rats reared in free-feeding about for 1 week.
A compound of the present invention was suspended in 0.5% HPMC solution (hydroxypropylmethylcellulose: 60SH-50, Shin-Etsu Chemical Co., Ltd.) to get a final concentration of 15 mg/ml.
Rats were given 2 mL/kg of a suspension of a compound of the present invention (the compound 30 mg/kg) by oral administration. On the other hand, rats in a control group were given the same amount of 0.5% HPMC by oral administration.
NPYY5 agonist ([cPP^1-7, NPY^19-23, Ala^31, Aib^32, Gln^34]-hPancreatic Polypeptide: Tocris Coockson) was dissolved in a physiological salt solution to be 0.1 nmol/10 μL. 0.1 nmol of the solution was infused via a guide cannula in a head of the rat one hour after giving a compound of the present invention. Immediately after the infusion, the amount of the remaining food was measured.
The amount of the remaining food was measured 1, 2 or 4 hour(s) after the infusion of an agonist and the food intake for this period was calculated. An antifeeding rate of a compound of the present invention against the food intake of rats in a control group was calculated.

[1] abbreviates: food intake 1 h after infusion vs control group, read-out: Antifeeding activity (%) 1 h.
Setting [2] is: food intake 2 h after infusion vs control group, read-out: Antifeeding activity (%) 2 h.
Where [3] appears, read: food intake 4 h after infusion vs control group, read-out: Antifeeding activity (%) 4 h.

Like-named read-outs stand apart in the source and are kept apart here.

`CCS(=O)(=O)N[C@H]1CC[C@H](C(=O)Nc2ccc(OCC(F)(F)F)nc2)CC1` [Ia-2]: the inhibition in vivo at 30 mg/kg is 98% under setting [1], 77% under setting [2] and 56% under setting [3].

As for `CCS(=O)(=O)NCCCCC(=O)Nc1ccc(OCC(F)(F)F)nc1` [Ia-3], the inhibition in vivo at 30 mg/kg reads like this: under setting [1], 85%; under setting [2], 78%; under setting [3], 74%.

For the compound `CCS(=O)(=O)N[C@H]1CC[C@H](C(=O)Nc2ccc(N3C[C@@H](C)O[C@@H](C)C3)cc2)CC1` [Ib-1], the inhibition in vivo at 30 mg/kg runs as follows: under setting [1], 90%; under setting [2], 95%; under setting [3], 92%.

For `CCn1c2ccccc2c2cc(NC(=O)[C@H]3CC[C@H](NS(=O)(=O)CC)CC3)ccc21` [Id-1], the inhibition in vivo at 30 mg/kg is, setting by setting: under setting [1], 5%; under setting [2], 37%; under setting [3], 49%.

Turning to `CCn1c2ccccc2c2cc(NC(=O)CCCCNS(=O)(=O)CC)ccc21` [Id-2], the inhibition in vivo at 30 mg/kg worked out at 100% under setting [1], 100% under setting [2] and 100% under setting [3].

For `CCS(=O)(=O)NCCCCC(=O)Nc1ccc2c(c1)c1c(n2C(C)C)CCCC1` [Id-4], the inhibition in vivo at 30 mg/kg reads like this: under setting [1], 100%; under setting [2], 94%; under setting [3], 95%.

Regarding `CCn1c2ccccc2c2cc(NC(=O)CCNS(=O)(=O)CC(F)(F)F)ccc21` [Ig-1], the inhibition in vivo at 30 mg/kg is, setting by setting: under setting [1], 67%; under setting [2], 44%; under setting [3], 48%.

On to `CN(C)S(=O)(=O)N[C@H]1CC[C@H](C(=O)Nc2ccc(C(F)(F)F)cc2)CC1` [Ii-1], for which the inhibition in vivo at 30 mg/kg reads like this: under setting [1], 42%; under setting [2], 38%; under setting [3], 31%.
